Reference: BindingDB's records for doi:10.1111/cbdd.12863 (Guangzhou Institutes of Biomedicine and Health, Chinese …, 2017)

How the values were obtained:
[1] = target: Epithelial discoidin domain-containing receptor 1 (Homo sapiens, UniProt Q08345); experiment: LanthaScreen Eu Kinase Activity Assay; conditions: pH 7.5; 25 °C
Description: (§1) The effects of compounds on the kinases DDR1 and DDR2 were assessed by using a LanthaScreen Eu kinase activity assay technology (Invitrogen, Carlsbad, CA, USA). […] Reaction buffer for the kinase reaction consists of 50 mm HEPES pH 7.5, 0.01% BRIJ-35, 10 mm MgCl2, and 1 mm EGTA. The concentration of fluorescein-polyGAT substrate (Invitrogen) in the assay was […] reactions were initiated with the addition of […] in the presence of serial dilutions of compounds. The reactions were allowed to proceed for 1 hour at room temperature before a 10 μL preparation of EDTA (20 mm) and Eu-labeled antibody (4 nm) in TR-FRET dilution buffer was added. The final concentration of antibody in the assay well was 2 nm, and the final concentration of EDTA was 10 mm.

[2] = target: T1, Discoidin domain-containing receptor 2 (Homo sapiens, UniProt Q16832); experiment: LanthaScreen Eu Kinase Activity Assay; conditions: pH 7.5; 25 °C
T1 sequence (Q16832 whole entry): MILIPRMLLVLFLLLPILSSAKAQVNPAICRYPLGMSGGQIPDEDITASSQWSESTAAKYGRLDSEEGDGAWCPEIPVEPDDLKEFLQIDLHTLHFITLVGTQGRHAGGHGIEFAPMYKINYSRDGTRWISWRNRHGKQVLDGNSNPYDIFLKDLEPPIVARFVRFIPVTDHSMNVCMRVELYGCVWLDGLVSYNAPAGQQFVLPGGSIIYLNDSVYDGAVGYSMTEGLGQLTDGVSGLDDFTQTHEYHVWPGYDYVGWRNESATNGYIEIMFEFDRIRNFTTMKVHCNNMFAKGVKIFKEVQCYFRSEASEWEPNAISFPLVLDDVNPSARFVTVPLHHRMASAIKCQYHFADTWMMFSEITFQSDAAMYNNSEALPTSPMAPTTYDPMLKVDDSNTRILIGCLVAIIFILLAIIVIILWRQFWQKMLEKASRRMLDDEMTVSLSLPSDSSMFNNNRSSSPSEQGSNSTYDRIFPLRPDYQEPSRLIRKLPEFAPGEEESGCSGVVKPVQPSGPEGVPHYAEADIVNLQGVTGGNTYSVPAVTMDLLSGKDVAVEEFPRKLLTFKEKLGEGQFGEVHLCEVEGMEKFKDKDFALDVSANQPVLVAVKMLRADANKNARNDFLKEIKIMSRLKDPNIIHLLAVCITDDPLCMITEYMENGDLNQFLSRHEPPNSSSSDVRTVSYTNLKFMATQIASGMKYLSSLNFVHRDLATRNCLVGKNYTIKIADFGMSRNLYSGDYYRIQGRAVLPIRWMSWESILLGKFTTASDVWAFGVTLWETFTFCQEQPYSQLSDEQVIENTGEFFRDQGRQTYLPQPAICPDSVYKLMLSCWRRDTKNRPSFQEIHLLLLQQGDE
Description: as §1

Chain of Epithelial discoidin domain-containing receptor 1 (Q08345 whole entry, the tested form may be a part): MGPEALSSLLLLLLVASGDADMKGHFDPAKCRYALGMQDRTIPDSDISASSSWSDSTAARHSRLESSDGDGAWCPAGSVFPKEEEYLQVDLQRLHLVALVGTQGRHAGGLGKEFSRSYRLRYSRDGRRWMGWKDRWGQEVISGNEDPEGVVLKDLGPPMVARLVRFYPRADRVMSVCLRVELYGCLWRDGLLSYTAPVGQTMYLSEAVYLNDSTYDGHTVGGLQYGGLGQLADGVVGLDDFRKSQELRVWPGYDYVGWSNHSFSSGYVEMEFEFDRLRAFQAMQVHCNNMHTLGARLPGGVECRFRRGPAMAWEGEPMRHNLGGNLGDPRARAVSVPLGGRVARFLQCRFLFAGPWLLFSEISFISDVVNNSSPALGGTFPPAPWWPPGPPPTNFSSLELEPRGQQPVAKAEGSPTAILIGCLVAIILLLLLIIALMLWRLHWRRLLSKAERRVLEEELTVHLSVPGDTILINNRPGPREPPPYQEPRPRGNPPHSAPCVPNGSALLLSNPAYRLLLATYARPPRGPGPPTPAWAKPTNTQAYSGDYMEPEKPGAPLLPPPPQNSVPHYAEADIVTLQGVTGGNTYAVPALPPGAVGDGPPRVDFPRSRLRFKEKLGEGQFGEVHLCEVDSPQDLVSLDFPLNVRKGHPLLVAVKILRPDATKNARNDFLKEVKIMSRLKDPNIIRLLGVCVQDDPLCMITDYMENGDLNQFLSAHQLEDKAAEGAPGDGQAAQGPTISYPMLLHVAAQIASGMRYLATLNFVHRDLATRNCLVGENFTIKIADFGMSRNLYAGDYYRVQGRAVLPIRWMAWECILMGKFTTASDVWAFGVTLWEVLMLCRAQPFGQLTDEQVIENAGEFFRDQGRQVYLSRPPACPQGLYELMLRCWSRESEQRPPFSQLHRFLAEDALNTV

Row | Compound | IC50 [1] [nM] | IC50 [2] [nM]
1 | Cc1nc(Nc2ncc(C(=O)Nc3c(C)cccc3Cl)s2)cc(N2CCN(C(=O)Oc3ccccc3)CC2)n1 [Phenyl 4-(6-((5-((2-chloro-6-methylphenyl)carbamoyl)thiazol-2-yl)amino)-2-methylpyrimidin-4-yl)-piperazine-1-carboxylate (3g)] | 7.14 | 21.3
2 | Cc1nc(Nc2ncc(C(=O)Nc3c(C)cccc3Cl)s2)cc(C2CCN(C(=O)OCC(C)C)C2)n1 (stereo not drawn) [Isobutyl 3-(6-((5-((2-chloro-6-methylphenyl)carbamoyl)thiazol-2-yl)amino)-2-methylpyrimidin-4-yl)pyrrolidine-1-carboxylate (5f)] | 12.1 | 85.4
3 | CCCCOC(=O)N1CCC(c2cc(Nc3ncc(C(=O)Nc4c(C)cccc4Cl)s3)nc(C)n2)C1 (stereo not drawn) [Butyl 3-(6-((5-((2-chloro-6-methylphenyl)carbamoyl)thiazol-2-yl)amino)-2-methylpyrimidin-4-yl)pyrrolidine-1-carboxylate (5e)] | 15.3 | 123
4 | Cc1nc(Nc2ncc(C(=O)Nc3c(C)cccc3Cl)s2)cc(N2CCN(C(=O)OCCN(C)C)CC2)n1 [2-(Dimethylamino)ethyl 4-(6-((5-((2-chloro-6-methylphenyl)carbamoyl)thiazol-2-yl)amino)-2-methylpyrimidin-4-yl)-piperazine-1-carboxylate (3k)] | 2.56 | 7.89
5 | Cc1nc(Nc2ncc(C(=O)Nc3c(C)cccc3Cl)s2)cc(N2CCN(C(=O)OC(C)C)CC2)n1 [Isopropyl 4-(6-((5-((2-chloro-6-methylphenyl)carbamoyl)thiazol-2-yl)amino)-2-methylpyrimidin-4-yl)-piperazine-1-carboxylate (3c)] | 5.99 | 14
6 | Cc1nc(Nc2ncc(C(=O)Nc3c(C)cccc3Cl)s2)cc(NC2CCN(S(C)(=O)=O)C2)n1 (stereo not drawn) [N-(2-chloro-6-methylphenyl)-2-((2-methyl-6-((1-(methylsulfonyl)pyrrolidin-3-yl)amino)-pyrimidin-4-yl)amino)thiazole-5-carboxamide (5i)] | 11.7 | 38.3
7 | C=CCOC(=O)N1CCC(c2cc(Nc3ncc(C(=O)Nc4c(C)cccc4Cl)s3)nc(C)n2)C1 (stereo not drawn) [Allyl 3-(6-((5-((2-chloro-6-methylphenyl)carbamoyl)thiazol-2-yl)amino)-2-methylpyrimidin-4-yl)pyrrolidine-1-carboxylate (5d)] | 13.3 | 17
8 | COC(=O)N1CCC(c2cc(Nc3ncc(C(=O)Nc4c(C)cccc4Cl)s3)nc(C)n2)C1 (stereo not drawn) [Methyl 3-(6-((5-((2-chloro-6-methylphenyl)carbamoyl)thiazol-2-yl)amino)-2-methylpyrimidin-4-yl)pyrrolidine-1-carboxylate (5a)] | 5.23 | 32.9
9 | C=CC(=O)N1CCN(c2cc(Nc3ncc(C(=O)Nc4c(C)cccc4Cl)s3)nc(C)n2)CC1 [2-((6-(4-Acryloylpiperazin-1-yl)-2-methylpyrimidin-4-yl)amino)-N-(2-chloro-6-methylphenyl)-thiazole-5-carboxamide (3l)] | 4.54 | 6.29
10 | Cc1nc(Nc2ncc(C(=O)Nc3c(C)cccc3Cl)s2)cc(N2CCN(C(=O)OCCN3CCOCC3)CC2)n1 [2-Morpholinoethyl 4-(6-((5-((2-chloro-6-methylphenyl)carbamoyl)thiazol-2-yl)amino)-2-methylpyrimidin-4-yl)-piperazine-1-carboxylate (3j)] | 2.26 | 7.04
11 | CCOC(=O)N1CCC(c2cc(Nc3ncc(C(=O)Nc4c(C)cccc4Cl)s3)nc(C)n2)C1 (stereo not drawn) [Ethyl 3-(6-((5-((2-chloro-6-methylphenyl)carbamoyl)thiazol-2-yl)amino)-2-methylpyrimidin-4-yl)pyrrolidine-1-carboxylate (5b)] | 9.6 | 22.4
12 | Cc1nc(Nc2ncc(C(=O)Nc3c(C)cccc3Cl)s2)cc(C2CCN(C(=O)Oc3ccccc3)C2)n1 (stereo not drawn) [Phenyl 3-(6-((5-((2-chloro-6-methylphenyl)carbamoyl)thiazol-2-yl)amino)-2-methylpyrimidin-4-yl)pyrrolidine-1-carboxylate (5g)] | 7.51 | 59.9
13 | Cc1nc(Nc2ncc(C(=O)Nc3c(C)cccc3Cl)s2)cc(C2CCN(C(=O)OC(C)C)C2)n1 (stereo not drawn) [Isopropyl 3-(6-((5-((2-chloro-6-methylphenyl)carbamoyl)thiazol-2-yl)amino)-2-methylpyrimidin-4-yl)pyrrolidine-1-carboxylate (5c)] | 9.14 | 72.1
14 | Cc1nc(Nc2ncc(C(=O)Nc3c(C)cccc3Cl)s2)cc(C2CCN(C(=O)OCc3ccccc3)C2)n1 (stereo not drawn) [Benzyl 3-(6-((5-((2-chloro-6-methylphenyl)carbamoyl)thiazol-2-yl)amino)-2-methylpyrimidin-4-yl)pyrrolidine-1-carboxylate (5h)] | 22 | 285
15 | Cc1nc(Nc2ncc(C(=O)Nc3c(C)cccc3Cl)s2)cc(N2CCN(C(=O)OCC(C)C)CC2)n1 [Isobutyl 4-(6-((5-((2-chloro-6-methylphenyl)carbamoyl)thiazol-2-yl)amino)-2-methylpyrimidin-4-yl)-piperazine-1-carboxylate (3f)] | 6.75 | 34.6
16 | CCS(=O)(=O)N1CCC(Nc2cc(Nc3ncc(C(=O)Nc4c(C)cccc4Cl)s3)nc(C)n2)C1 (stereo not drawn) [N-(2-chloro-6-methylphenyl)-2-((6-((1-(ethylsulfonyl)pyrrolidin-3-yl)amino)-2-methylpyrimidin-4-yl)amino)thiazole-5-carboxamide (5j)] | 48.5 | 156
17 | COC(=O)N1CCN(c2cc(Nc3ncc(C(=O)Nc4c(C)cccc4Cl)s3)nc(C)n2)CC1 [Methyl 4-(6-((5-((2-chloro-6-methylphenyl)carbamoyl)thiazol-2-yl)amino)-2-methylpyrimidin-4-yl)-piperazine-1-carboxylate (3a)] | 4.32 | 6.76
18 | C=CCOC(=O)N1CCN(c2cc(Nc3ncc(C(=O)Nc4c(C)cccc4Cl)s3)nc(C)n2)CC1 [Allyl 4-(6-((5-((2-chloro-6-methylphenyl)carbamoyl)thiazol-2-yl)amino)-2-methylpyrimidin-4-yl)-piperazine-1-carboxylate (3d)] | 6.69 | 21.6
19 | CCCCOC(=O)N1CCN(c2cc(Nc3ncc(C(=O)Nc4c(C)cccc4Cl)s3)nc(C)n2)CC1 [Butyl 4-(6-((5-((2-chloro-6-methylphenyl)carbamoyl)thiazol-2-yl)amino)-2-methylpyrimidin-4-yl)-piperazine-1-carboxylate (3e)] | 3.2 | 6.16
20 | Cc1nc(Nc2ncc(C(=O)Nc3c(C)cccc3Cl)s2)cc(N2CCN(C(=O)OCCCl)CC2)n1 [2-Chloroethyl 4-(6-((5-((2-chloro-6-methylphenyl)carbamoyl)thiazol-2-yl)amino)-2-methylpyrimidin-4-yl)-piperazine-1-carboxylate (3i)] | 4.21 | 9
21 | C=CC(=O)N1CCC(Nc2cc(Nc3ncc(C(=O)Nc4c(C)cccc4Cl)s3)nc(C)n2)C1 (stereo not drawn) [2-((6-((1-Acryloylpyrrolidin-3-yl)amino)-2-methylpyrimidin-4-yl)amino)-N-(2-chloro-6-methylphenyl)thiazole-5-carboxamide (5k)] | 7.31 | 34.4
22 | CCOC(=O)N1CCN(c2cc(Nc3ncc(C(=O)Nc4c(C)cccc4Cl)s3)nc(C)n2)CC1 [Ethyl 4-(6-((5-((2-chloro-6-methylphenyl)carbamoyl)thiazol-2-yl)amino)-2-methylpyrimidin-4-yl)-piperazine-1-carboxylate (3b)] | 3.15 | 11.4
23 | C/C=C/C(=O)N1CCN(c2cc(Nc3ncc(C(=O)Nc4c(C)cccc4Cl)s3)nc(C)n2)CC1 [(E)-2-((6-(4-(but-2-enoyl)piperazin-1-yl)-2-methylpyrimidin-4-yl)amino)-N-(2-chloro-6-methylphenyl)thiazole-5-carboxamide (3m)] | 4.25 | 8.34
24 | Cc1nc(Nc2ncc(C(=O)Nc3c(C)cccc3Cl)s2)cc(N2CCN(C(=O)OCc3ccccc3)CC2)n1 [Benzyl 4-(6-((5-((2-chloro-6-methylphenyl)carbamoyl)thiazol-2-yl)amino)-2-methylpyrimidin-4-yl)-piperazine-1-carboxylate (3h)] | 22.6 | 133
